According to US10829492B2, “Amino pyrazolopyrimidine compound used as neurotrophic factor tyrosine kinase receptor inhibitor” (CHIA TAI TIANQING PHARMACEUTICAL GROUP CO., LTD., priority 2016, dated 2020):

Molecular target: TrkA kinase (Homo sapiens (Human), UniProt P04629)
Assay: HTRF assay for inhibitory activity (IC50) against NTRK kinase, TrkA
Assay type: biochemical
Conditions: Table 1, ATP 40 μM, kinase 0.5 nM
Description: 1. Assay for Inhibitory Activity (IC50) Against NTRK Kinase
A testing platform for TrkA, TrkB and TrkC kinase activity was established based on Homogeneous Time-Resolved Fluorescence (HTRF) assay, and the activities of the compounds were tested using the platform. The compounds were subjected to three-fold gradient dilution with 100% DMSO with a starting concentration of 1 mM (11 concentrations in total). 4 μL of diluted sample for each concentration was added to 96 μL of reaction buffer (50 mM HEPES, pH7.4, 5 mM MgCl2, 1 mM NaVO3, 0.001% Tween-20, 0.01% BSA and 1 mM DTT) and mixed homogeneously to be used as a 4* compound. The reaction buffer was used to formulate 2* TrkA, TrkB and TrkC kinases (purchased from Carna Biosciences 08-186, 08-187, 08-197, and the final concentrations thereof were 0.5 nM, 0.1 nM, and 1 nM, respectively) and 4* substrate mixture (ATP+TK peptide) (wherein the final concentrations of ATP were 40 μM, 50 μM, and 20 μM, respectively; TK peptide, HTRF® KinEASE™-TK, was purchased from Cisbio, and the final concentration thereof was 100 nM) for use. 2.5 μL of the 4* compound was added to a 384-well plate (OptiPlate-384, purchased from PerkinElmer), and then 5 μL of the 2* TrkA, TrkB and TrkC kinases were added, and mixed homogeneously by centrifugation. Then 2.5 μL of the 4* substrate mixture was added to initiate the reaction (the total reaction volume is 10 μL). The 384-well plate was placed in an incubator and incubated for 60 min at 23° C. Then the reaction was terminated by adding 5 μL of Eu3+ cryptate-labeled anti-phosphotyrosine antibody (HTRF® KinEASE™-TK, purchased from Cisbio), and 5 μL of Streptavidin-XL-665 (HTRF® KinEASE™-TK, purchased from Cisbio). After incubated for 1 hr in the incubator, the fluorescence values were read on Envision (purchased from PerkinElmer). The excitation wavelength was 320 nm, and the emission wavelengths for detection were 665 nm and 620 nm. The enzymatic activity was represented by a ratio of the two readout at the two emission wavelengths. The enzymatic activity for each compound was tested at 11 concentrations, and IC50 values of the compounds were obtained by calculating the data using GraFit6.0 software (Erithacus Software).

TrkA kinase, sequence (P04629 33-796): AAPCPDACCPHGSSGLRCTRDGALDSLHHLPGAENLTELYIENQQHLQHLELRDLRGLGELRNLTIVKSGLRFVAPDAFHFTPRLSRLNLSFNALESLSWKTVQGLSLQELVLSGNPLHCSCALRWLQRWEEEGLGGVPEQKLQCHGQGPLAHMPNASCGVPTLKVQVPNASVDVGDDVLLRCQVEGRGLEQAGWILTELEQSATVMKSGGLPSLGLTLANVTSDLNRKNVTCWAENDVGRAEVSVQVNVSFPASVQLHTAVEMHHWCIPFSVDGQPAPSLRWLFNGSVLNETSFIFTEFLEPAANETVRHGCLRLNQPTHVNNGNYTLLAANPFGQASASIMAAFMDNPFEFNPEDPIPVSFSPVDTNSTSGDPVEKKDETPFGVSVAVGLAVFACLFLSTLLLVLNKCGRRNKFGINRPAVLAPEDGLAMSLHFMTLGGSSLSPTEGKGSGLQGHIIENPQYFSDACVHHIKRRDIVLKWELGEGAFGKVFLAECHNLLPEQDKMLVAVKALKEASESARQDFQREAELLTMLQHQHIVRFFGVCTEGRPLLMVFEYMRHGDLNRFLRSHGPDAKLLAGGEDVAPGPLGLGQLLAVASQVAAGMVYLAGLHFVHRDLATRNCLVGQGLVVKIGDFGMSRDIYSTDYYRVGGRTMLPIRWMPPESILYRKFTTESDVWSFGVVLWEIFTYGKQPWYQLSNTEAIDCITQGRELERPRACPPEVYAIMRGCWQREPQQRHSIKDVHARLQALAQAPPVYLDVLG

Structure (SMILES)	IC50
Nc1nn2ccc(N3CCC[C@@H]3c3cc(F)ccc3F)nc2c1C(=O)N1CCC(O)C1 (stereo partly drawn) [Example 10, (2-amino-5-((R)-2-(2,5-difluorophenyl)pyrrolidin-1-yl)pyrazolo[1,5-a]pyrimidin-3-yl) (3-hydroxypyrrolidin-1-yl)methanone]	< 25 nM
CCOC(=O)c1c(NC)nn2ccc(N3CCC[C@@H]3c3cc(F)ccc3F)nc12 [Example 20, ethyl (R)-5-(2-(2,5-difluorophenyl)pyrrolidin-1-yl)-2-(methylamino)pyrazolo[1,5-a]pyrimidine-3-carboxylate]	< 1000 nM
CNc1nn2ccc(N3CCC[C@@H]3c3cc(F)ccc3F)nc2c1C(N)=O [Example 21, (R)-5-(2-(2,5-difluorophenyl)pyrrolidin-1-yl)-2-(methylamino)pyrazolo[1,5-a]pyrimidine-3-carboxamide]	< 500 nM
CCOC(=O)c1coc(-c2c(NCc3ccc(OC)cc3)nn3ccc(N4CCCC4c4cc(F)ccc4F)nc23)n1 (stereo not drawn) [Example 26, ethyl 2-(5-(2-(2,5-difluorophenyl)pyrrolidin-1-yl)-2-((4-methoxybenzyl)amino)pyrazolo[1,5-a]pyrimidin-3-yl)oxazole-4-carboxylate]	< 100 nM
Cc1csc(-c2c(N)nn3ccc(N4CCCC4c4cc(F)ccc4F)nc23)n1 (stereo not drawn) [Example 28]	< 25 nM
CCOC(=O)c1csc(-c2c(N)nn3ccc(N4CCCC4c4cc(F)ccc4F)nc23)n1 (stereo not drawn) [Example 29, ethyl 2-(2-amino-5-(2-(2,5-difluorophenyl)pyrrolidin-1-yl)pyrazolo[1,5-a]pyrimidin-3-yl)thiazole-4-carboxylate]	< 1 nM
Cn1cc(-c2c(N)nn3ccc(N4CCC[C@@H]4c4cc(F)ccc4F)nc23)cn1 [Example 34]	< 1 nM
CCOC(=O)c1c(NC(C)=O)nn2ccc(N3CCC[C@@H]3c3cc(F)ccc3F)nc12 [Example 9, ethyl (R)-2-acetylamino-5-(2-(2,5-difluorophenyl)pyrrolidin-1-yl)pyrazolo[1,5-a]pyrimidine-3-carboxylate]	< 25 nM
Cc1coc(-c2c(N)nn3ccc(N4CCCC4c4cc(F)ccc4F)nc23)n1 (stereo not drawn) [Example 27]	< 25 nM

Next, values leading:

IC50	Structure (SMILES)
< 1 nM	Nc1nn2ccc(N3C[C@@H](F)C[C@@H]3c3cc(F)ccc3F)nc2c1C(=O)NC1CC1 [Example 51, 2-amino-N-cyclopropyl-5-((2R,4S)-2-(2,5-difluorophenyl)-4-fluoropyrrolidin-1-yl)pyrazolo[1,5-a]pyrimidine-3-carboxamide]
< 25 nM	N#Cc1c(N)nn2ccc(N3C[C@@H](O)C[C@@H]3c3cc(F)ccc3F)nc12 [Example 44, 2-amino-5-((2R,4S)-2-(2,5-difluorophenyl)-4-hydroxypyrrolidin-1-yl)pyrazolo[1,5-a]pyrimidine-3-carbonitrile]
< 1 nM	Nc1nn2ccc(N3C[C@@H](F)C[C@@H]3c3cc(F)ccc3F)nc2c1C(=O)NC1(CO)CC1 [Example 52, 2-amino-5-((2R,4S)-2-(2,5-difluorophenyl)-4-fluoropyrrolidin-1-yl)-N-(1-(hydroxymethyl)cyclopropyl)pyrazolo[1,5-a]pyrimidine-3-carboxamide]
< 1 nM	Nc1nn2ccc(N3C[C@@H](F)C[C@@H]3c3cc(F)ccc3F)nc2c1C(=O)NOCCO [Example 50, 2-amino-5-((2R,4S)-2-(2,5-difluorophenyl)-4-fluoropyrrolidin-1-yl)-N-(2-hydroxyethoxy)pyrazolo[1,5-a]pyrimidine-3-carboxamide]
< 25 nM	CCOC(=O)c1c(N)nn2ccc(N3CC(F)(F)CC3c3cc(F)ccc3F)nc12 (stereo not drawn) [Example 38, ethyl 2-amino-5-(2-(2,5-difluorophenyl)-4,4-difluoropyrrolidin-1-yl)pyrazolo[1,5-a]pyrimidine-3-carboxylate]
< 1 nM	CCOC(=O)c1c(N)nn2ccc(N3C[C@@H](F)C[C@@H]3c3cc(F)ccc3F)nc12 [Example 35, ethyl 2-amino-5-((2R,4S)-2-(2,5-difluorophenyl)-4-fluoropyrrolidin-1-yl)pyrazolo[1,5-a]pyrimidine-3-carboxylate]
